# Read-outs that look alike come from different tables or passages of the source.
# Key:
# MDA-MB-231 cells = assay: RealTime-Glo MT cell viability (cytotoxicity) assay; format: cell-based, human; conditions: MDA-MB-231; for IC50: Homo sapiens
# Description: (§1) The cytotoxicity of RES, A-1, and A-3 was measured using the RealTime-Glo^TM MT Cell Viability Assay (Promega, Madison, WI, USA). The cells (10,000 cells/well) were seeded into 96-well plates. […] Cells with 0.1% DMSO (ATCC; Manassas, VA, USA) were included as a control. Luminescence was measured every 12 h for 72 total hours in a Cytation^TM 5 (BioTek, Winooski, VT, USA) plate reader. All experiments were performed in triplicates.
# MDA-MB-436 cells = assay: as above; format: cell-based, human; conditions: MDA-MB-436
# Description: as §1
# MCF-7 cells = system: MCF-7 cells; design: method as in PMID 32721999, PMID 33643572; conditions: cited from earlier work
# MDA-MB-231 = system: MDA-MB-231; design: method as in PMID 32721999, PMID 33643572; conditions: 24 h treatment, MTT assay; cited from earlier work
# [1] = system: human leukemia HL-60 cell line; design: method as in PMID 21067217; conditions: 72 h treatment; cited from earlier work
# [2] = system: UDP-glucuronosyltransferases; conditions: in vitro metabolism; cited from earlier work
# [3] = MDA-MB-231, 24 h, 24 h, in Figure 2 panels
# [4] = MDA-MB-231, 24 h, 24 h of treatment
# [5] = MDA-MB-231, 48 h, 48 h of treatment
# [6] = MDA-MB-231, 72 h, 72 h of treatment
# [7] = Homo sapiens, MDA-MB-436, 24 h, 24 h
# [8] = Homo sapiens, MDA-MB-436, 24 h, 24 h, in Figure 2 panels
# [9] = Homo sapiens, MDA-MB-436, 48 h, 48 h
# [10] = Homo sapiens, MDA-MB-436, 72 h, 72 h
SMILES,IC50 (MDA-MB-231 cells; [3]),IC50 (MDA-MB-231 cells; [4]),"IC50 (MDA-MB-231 cells; MDA-MB-231, 48 h, 48 h, in Figure 2 panels)",IC50 (MDA-MB-231 cells; [5]),IC50 (MDA-MB-231 cells; [6]),IC50 (MDA-MB-436 cells; [7]),IC50 (MDA-MB-436 cells; [8]),IC50 (MDA-MB-436 cells; [9]),IC50 (MDA-MB-436 cells; [10]),IC50 (MCF-7 cells; 24 h treatment),IC50 (MCF-7 cells; 48 h treatment),IC50 (MDA-MB-231),IC50 [1],"growth inhibition at low concentrations (MDA-MB-231 cells; 0.01-10 µM, 72 h)","growth inhibition at low concentrations (MDA-MB-436 cells; 0.01-10 µM, 72 h)",IC50 (MDA-MB-436 cells; 72 h),glucuronidated products compared to non-prenylated analogs piceatannol and RES [2]
"Oc1ccc(/C=C/c2cc(O)cc(O)c2)cc1 [RES, resveratrol, reference compound]",6.27 µM,32.1 µM,11.5 µM,6.54 µM,10.8 µM,37.5 µM,9.16 µM,23.7 µM,15.7 µM,131 µM,83.9 µM,144 µM,17.6 µM,–,–,–,–
"CC(C)/C=C/c1c(O)cc(/C=C/c2ccc(O)cc2)cc1O [A-3, arachidin-3]",9.51 µM,18.7 µM,–,16.2 µM,18.7 µM,11 µM,10.9 µM,16.7 µM,19.8 µM,–,–,–,18.9 µM,no growth inhibition below 10 µM,no growth inhibition below 10 µM,19.8 µM,lower glucuronidated products

# Reference: PMC8835363, “Arachidin-1, a Prenylated Stilbenoid from Peanut, Induces Apoptosis in Triple-Negative Breast Cancer Cells” (International Journal of Molecular Sciences, 2022)
